Experiments:
GAERS model rats = details: known from literature; cited from earlier work
[1] = test system: GAERS (Genetic Absence Epilepsy Rat from Strasbourg) model; test: Efficacy test in GAERS model rats: EEG analysis of spike-and-wave discharges (SWD); type: in vivo; details: for cumulated duration of SWD / number of occurrences of SWD: 20-minute intervals 10-90 min after administration, 2-way ANOVA vs vehicle; for cumulated duration of SWD, total effect for 1 hour after administration / number of occurrences of SWD, total effect for 1 hour after administration: 1-way ANOVA vs vehicle, effect similar to valproate 150 and 200 mg/kg
Protocol: Twelve 5-week-old GAERS model rats were purchased from the Grenoble Institute of Neurosciences, France. After purchase, the rats were bred at a temperature of 21±2° C. under conditions of free access to food and water, and controlled light (illuminated from 8 am to 8 pm), and the condition was maintained for 2 months prior to surgery.
EEG electrodes were implanted into twelve 3-month-old GAERS rats. Stereotaxic implantation was performed under anesthesia with isoflurane (2% concentration in oxygen). The rats were fixed to the stereotaxic frame and surgery was performed while observing body temperature. An ophthalmic gel was used to prevent drying of the cornea. After cutting the hair of the incision site, it was disinfected with povidone, and after incision, four holes were drilled using a drill at the frontal cortical and parietal cortical positions of both hemispheres of the open skull. Monopolar electrodes were placed in these holes and then connected to a female connector fixed to the skull for EEG recording. The incision site was then sutured. After surgery, buprenorphine was injected subcutaneously at a dose of 0.1 mg/kg, and the anesthetic was removed and observed until recovery of consciousness. After that, the rats were kept in a cage for recovery for a week.
One week after the electrode implantation, preliminary EEG measurements of 1 hour were performed on all 12 animals, and 10 animals showing enough signal-to-noise suitable for detecting generation of SWD were selected.
Test compound and positive control drug were prepared immediately before administration. Carbamic acid (R)-1-(2-chlorophenyl)-2-tetrazol-2-yl-ethyl ester prepared in the above preparation example was used as the test compound which was dissolved in 30% (volume/volume) PEG300 (81164-14, Sigma-Aldrich), and the positive control valproate (P4543, Sigma-Aldrich) was dissolved in 0.9% sterile saline (Cooper, France). Both drugs were administered intraperitoneally at a dose of 5 ml/kg. 30% PEG300 was used for vehicle administration as the negative control.
The test was done in a cross-over method, with a minimum interval of 71 hours between each administration for wash-out of the drug. In the first stage test, the following conditions were administered. • Vehicle (30% PEG300) • Valproate 200 mg/kg • Test compound 5 mg/kg • Test compound 10 mg/kg • Test compound 20 mg/kg
In the second stage test, the following conditions were administered. • Valproate 150 mg/kg • Test compound 30 mg/kg
For EEG recording, 10 GAERS rats were placed in a recording chamber and then connected to a wire for EEG recording. After an hour of habituation process, EEG recordings of free-moving animals were performed. As a baseline phase, 20 minutes of recording were performed before drug administration, and 90 minutes of recording were performed after drug administration, using SystemPlus Evolution (Micromed). During the recording, the animals were kept in a quiet wakefulness state.
The generated SWD was analyzed using the recorded EEG data, and all data analysis was performed by blind method. SWD was analyzed for the 20-minute baseline phase and for a total of 80 minutes period from 10 to 90 minutes after drug administration. The 80 minutes were analyzed by dividing them into 20-minute intervals, and the number of occurrences of SWD and the cumulated SWD duration (the cumulated duration of SWD) were analyzed.
Results were expressed as mean value ±standard error, and prism (graphpad) was used for statistical analysis. 2-way ANOVA was used for the number of occurrences of SWD and the cumulated duration of SWD over time. Bonferroni's paired comparison method was used for comparison with the baseline period, comparison with the vehicle-administered negative control and comparison with the valproate-administered positive control. […]

[2] = compared with valproate positive control

Row | Structure (SMILES) | SWD in the GAERS model rats (GAERS model rats) | effect duration (cumulated duration of SWD) [1, 2] | effect duration (number of occurrences of SWD) [1, 2] | cumulated duration of SWD ([1]; test compound 10 mg/kg i.p.) | number of occurrences of SWD ([1]; test compound 10 mg/kg i.p.) | cumulated duration of SWD, total effect for 1 hour after administration ([1]; test compound 20 mg/kg i.p.) | number of occurrences of SWD, total effect for 1 hour after administration ([1]; test compound 20 mg/kg i.p.) | cumulated duration of SWD ([1]; test compound 20 mg/kg i.p.) | number of occurrences of SWD ([1]; test compound 20 mg/kg i.p.) | cumulated duration of SWD, total effect for 1 hour after administration ([1]; test compound 30 mg/kg i.p.) | number of occurrences of SWD, total effect for 1 hour after administration ([1]; test compound 30 mg/kg i.p.) | cumulated duration of SWD ([1]; test compound 30 mg/kg i.p.) | number of occurrences of SWD ([1]; test compound 30 mg/kg i.p.)
1 | CCC1(C)CC(=O)NC1=O (stereo not shown) [ethosuximide] | inhibited |  |  |  |  |  |  |  |  |  |  |  | 
2 | NC(=O)O[C@@H](Cn1ncnn1)c1ccccc1Cl [test compound, Carbamic acid (R)-1-(2-chlorophenyl)-2-tetrazol-2-yl-ethyl ester] |  | longer duration than valproate | longer duration than valproate | significant reduction effect in the 30-50 min and 50-70 min intervals after administration | significance in the 30 to 50 min interval after administration | significantly reduced the cumulated duration of SWD compared to the vehicle administration group | significantly reduced the number of occurrences of SWD compared to the vehicle administration group | significant reduction effect in the 30-90 min interval after administration | significance in the 30 to 90 min interval after administration | significantly reduced the cumulated duration of SWD compared to the vehicle administration group | significantly reduced the number of occurrences of SWD compared to the vehicle administration group | significant reduction effect in the entire period after administration | significance in the entire period after administration
